Measurements reported in the OPERA property sets (Mansouri et al. 2018).

Compound | logP
CCOc1cccc(NC(=O)Cc2ccccc2)c1 | 3.23
O=C(Cc1ccccc1)Nc1ccccc1[N+](=O)[O-] | 2.73
CC(=O)Oc1cccc(NC(=O)Cc2ccccc2)c1 | 2.37
O=C(Cc1ccccc1)Nc1ccccc1 | 2.7
CS(=O)(=O)Oc1cccc(NC(=O)Cc2ccccc2)c1 | 2.32
O=C(Cc1ccccc1)Nc1cccc(I)c1 | 3.91
CC(=O)c1ccc(NC(=O)Cc2ccccc2)cc1 | 2.75
CCNc1cccc(NC(=O)Cc2ccccc2)c1 | 2.59
COc1ccc(NC(=O)Cc2ccccc2)cc1 | 2.49
N#Cc1cccc(NC(=O)Cc2ccccc2)c1 | 2.75
O=C(Cc1ccccc1)Nc1ccc(O)cc1 | 1.82
O=C(Cc1ccccc1)Nc1cccc([N+](=O)[O-])c1 | 2.93
COc1ccccc1NC(=O)Cc1ccccc1 | 2.68
CCc1cccc(N(C(C)=O)c2ccccc2)c1 | 3.47
O=C(Cc1ccccc1)Nc1cccc(Br)c1 | 3.77
CC(=O)c1cccc(NC(=O)Cc2ccccc2)c1 | 2.62
O=C(Cc1ccccc1)Nc1ccccc1F | 2.62
Nc1ccccc1NC(=O)Cc1ccccc1 | 1.45
Nc1cccc(NC(=O)Cc2ccccc2)c1 | 1.59
O=C(Cc1ccccc1)Nc1ccc(Cl)cc1 | 3.54
O=C(Cc1ccccc1)Nc1ccc(F)cc1 | 2.86
O=C(Cc1ccccc1)Nc1ccc(Br)cc1 | 3.7
O=C(Cc1ccccc1)Nc1cccc(O)c1 | 2.22
O=C(Cc1ccccc1)Nc1ccc([N+](=O)[O-])cc1 | 3.18
Cc1cccc(NC(=O)Cc2ccccc2)c1 | 3.14
CNc1cccc(NC(=O)Cc2ccccc2)c1 | 2.31
O=C(Cc1ccccc1)Nc1cccc(F)c1 | 3.1
CC(=O)N(c1ccccc1)c1ccc(C)cc1 | 3.05
O=C(Cc1ccccc1)Nc1ccccc1O | 2.4
COc1cccc(NC(=O)Cc2ccccc2)c1 | 2.86
